The structures appear in SMILES notation.

This assay deals with T1, Dual specificity protein phosphatase 1 (Homo sapiens, UniProt P28562).
T1 sequence (P28562 whole entry): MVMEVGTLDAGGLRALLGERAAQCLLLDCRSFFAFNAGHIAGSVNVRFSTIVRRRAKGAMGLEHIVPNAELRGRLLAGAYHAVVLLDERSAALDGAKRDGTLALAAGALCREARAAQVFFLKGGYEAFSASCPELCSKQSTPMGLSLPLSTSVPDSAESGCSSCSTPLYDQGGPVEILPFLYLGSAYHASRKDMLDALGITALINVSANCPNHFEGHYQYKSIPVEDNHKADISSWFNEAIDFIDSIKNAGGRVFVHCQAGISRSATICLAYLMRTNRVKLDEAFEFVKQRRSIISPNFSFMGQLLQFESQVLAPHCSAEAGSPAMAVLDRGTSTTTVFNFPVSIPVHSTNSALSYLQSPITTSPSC
Nature of the assay: MKP-1 phosphatase inhibitor potency, dose response, biochemical, in vitro, confirmation (AID 551). The following applies: pH 7; 22 °C.

The IC50 is the concentration needed to halve the response being measured. A low value points to higher potency. Take `O=C(OC1CCCCC1)c1ccc2c(c1)C1C=CCC1C(C(=O)O)N2` (configuration not stated) [SMR000019385]: the 50% inhibitory concentration (IC50) was determined as 7.66 µM. `Nc1c(N2CCCC2)cc(Cl)c2nonc12` [(7-chloro-5-pyrrolidino-benzofurazan-4-yl)amine] yielded a half-inhibitory concentration (IC50) of more than 50 µM.

`O=C(CSc1nc2ccccc2c(=O)[nH]1)Nc1ccc(S(=O)(=O)N2CCCC2)cc1` [2-[(4-oxo-1H-quinazolin-2-yl)sulfanyl]-N-(4-pyrrolidin-1-ylsulfonylphenyl)acetamide]: the 50% inhibitory concentration (IC50) is more than 50 µM. Under `CN1Cc2cc(C(=O)c3cc(Cl)cc(CSc4ncccn4)c3O)cnc2NC1=O` [6-[5-chloranyl-2-oxidanyl-3-(pyrimidin-2-ylsulfanylmethyl)phenyl]carbonyl-3-methyl-1,4-dihydropyrido[2,3-d]pyrimidin-2-one] stands more than 50 µM; under `CCOc1cc(/C=C(/C#N)c2ccc(F)cc2)ccc1OCc1ccc(C(=O)O)o1` [5-[[4-[(E)-2-cyano-2-(4-fluorophenyl)ethenyl]-2-ethoxyphenoxy]methyl]furan-2-carboxylic acid], 36.1 µM. With `Cc1ccc(C)c(-n2nnnc2SCC(=O)c2ccc3c(c2)NC(=O)CO3)c1` [6-[2-[1-(2,5-dimethylphenyl)tetrazol-5-yl]sulfanylacetyl]-4H-1,4-benzoxazin-3-one] the figure was more than 50 µM. With `COc1cc(/C=C(/C#N)c2ccc(F)cc2)ccc1OCc1ccc(C(=O)O)o1` [5-({4-[2-cyano-2-(4-fluorophenyl)vinyl]-2-methoxyphenoxy}methyl)-2-furoic acid] the figure was more than 50 µM; with `Cc1c(N=c2c(=O)c3ccccc3c2=O)c(=O)n(-c2ccccc2)n1C` [MLS000105950], 8.85 µM.

On to `N#Cc1c(NC(=O)c2ccc(Br)o2)n(-c2ccccc2)c2nc3ccccc3nc12` [5-bromanyl-N-(3-cyano-1-phenyl-pyrrolo[3,2-b]quinoxalin-2-yl)furan-2-carboxamide], for which the IC50 stood at 14 µM. In turn, `COc1ccc(-c2cc3nc(C4CCN(C(=O)OC(C)(C)C)CC4)c(C(=O)O)cn3n2)cc1` [2-(4-methoxyphenyl)-5-[1-[(2-methylpropan-2-yl)oxy-oxomethyl]-4-piperidinyl]-6-pyrazolo[1,5-a]pyrimidinecarboxylic acid] gave an IC50 of 26.9 µM. On to `Cc1cccc(N2CCN(C(=O)Cc3c(C(=O)O)[nH]c4ccc(Cl)cc34)CC2)c1C` [5-chloranyl-3-[2-[4-(2,3-dimethylphenyl)piperazin-1-yl]-2-oxidanylidene-ethyl]-1H-indole-2-carboxylic acid], for which it took 25.8 µM to reach half-maximal inhibition (IC50).

`C=CCn1c(NC(=O)c2ccccc2Cl)c(C#N)c2nc3ccccc3nc21` [2-chloro-N-(3-cyano-1-prop-2-enyl-2-pyrrolo[3,2-b]quinoxalinyl)benzamide]: the half-maximal inhibitory concentration (IC50) is more than 50 µM. Under `Cc1nc2cc(-c3cccc(F)c3)nn2c(C)c1CCC(=O)N1CCC2(CC1)OCCO2` [1-(1,4-dioxa-8-azaspiro[4.5]decan-8-yl)-3-[2-(3-fluorophenyl)-5,7-dimethyl-6-pyrazolo[1,5-a]pyrimidinyl]-1-propanone] stands more than 50 µM.

Consider `COc1ccc(-n2c(NC(=O)c3ccco3)c(C#N)c3nc4ccccc4nc32)cc1` [MLS000079925], for which the half-inhibitory concentration (IC50) is 15.3 µM. In other words, the double-digit micromolar range. Under `CCn1c(SCC(=O)Nc2nc3ccc(OC)cc3s2)nc2c1c(=O)n(C)c(=O)n2C` [2-(7-Ethyl-1,3-dimethyl-2,6-dioxo-2,3,6,7-tetrahydro-1H-purin-8-ylsulfanyl)-N-(6-methoxy-benzothiazol-2-yl)-acetamide] stands 18.2 µM; under `Cc1ccc(NC(=O)COC(=O)c2ccc3c(c2)NC(=O)C2CCCN32)cc1C` (configuration not stated) [4-keto-2,3,3a,5-tetrahydro-1H-pyrrolo[1,2-a]quinoxaline-7-carboxylic acid [2-(3,4-dimethylanilino)-2-keto-ethyl] ester], more than 50 µM. Under `O=c1c2cc(N3CCOCC3)ccc2[nH]c(=S)n1Cc1ccco1` [3-(2-furanylmethyl)-6-(4-morpholinyl)-2-sulfanylidene-1H-quinazolin-4-one] stands more than 50 µM; under `N#Cc1c(N)sc(=S)c2c1CCN(Cc1ccccc1)C2` [3-Amino-7-benzyl-1-thioxo-5,6,7,8-tetrahydro-1H-thiopyrano[3,4-c]pyridine-4-carbonitrile], 1.13 µM. With `[O-]/[N+](=C\c1ccncc1)c1ccc(Br)cc1` [MLS000109219] the figure was more than 50 µM; with `Cc1cccc(NC(=O)c2cc(NC(=O)C3CCCCC3C(=O)O)ccc2N2CCCCC2)c1` (configuration not stated) [2-({[3-{[(3-methylphenyl)amino]carbonyl}-4-(1-piperidinyl)phenyl]amino}carbonyl)cyclohexanecarboxylic acid], 49.2 µM. Take `Cc1ccc(/C=C/C2=Cc3c(sc(NC(=O)CSc4nnc(N)[nH]4)c3C#N)C(C)(C)C2)o1` [2-[(5-azanyl-1H-1,2,4-triazol-3-yl)sulfanyl]-N-[3-cyano-7,7-dimethyl-5-[(E)-2-(5-methylfuran-2-yl)ethenyl]-6H-1-benzothiophen-2-yl]ethanamide]: the IC50 is 9.38 µM. With `CC(=O)[C@@H]1[C@@H]2C(=O)N(c3ccc(F)c(Cl)c3)C(=O)[C@@H]2C2c3ccccc3C=CN21` (some centres not stated) [MLS000040594] the figure was more than 50 µM. Under `CC(C)Cn1c(N)c(C(=O)COC(=O)c2cc(-c3ccco3)nc3ccccc23)c(=O)n(C)c1=O` [2-(2-furanyl)-4-quinolinecarboxylic acid [2-[4-amino-1-methyl-3-(2-methylpropyl)-2,6-dioxo-5-pyrimidinyl]-2-oxoethyl] ester] stands 23.1 µM; under `O=C(c1ccc2c(=O)n(C3CCCC3)c(=S)[nH]c2c1)N1CCN(C2CCCCC2)CC1` [7-[(4-cyclohexyl-1-piperazinyl)-oxomethyl]-3-cyclopentyl-2-sulfanylidene-1H-quinazolin-4-one], more than 50 µM; under `[O-]/[N+](=C\c1ccncc1)c1ccccc1`, 49.9 µM.

`CC1CCCCC1NS(=O)(=O)c1ccc(S(=O)(=O)NCc2ccncc2)cc1` (configuration not stated) [4-N-(2-methylcyclohexyl)-1-N-(pyridin-4-ylmethyl)benzene-1,4-disulfonamide] showed a 50% inhibitory concentration (IC50) of more than 50 µM. As for `Cc1cccc(N2CCN(C(=O)c3cc4c(=O)[nH]c5ccccc5c4n3C)CC2)c1C` [2-{[4-(2,3-dimethylphenyl)piperazin-1-yl]carbonyl}-1-methyl-1,5-dihydro-4H-pyrrolo[3,2-c]quinolin-4-one], the IC50 is more than 50 µM. With `CCOc1ccc(-c2cc3nc(C4CCN(C(=O)OC(C)(C)C)CC4)c(C(=O)O)cn3n2)cc1` [2-(4-ethoxyphenyl)-5-[1-[(2-methylpropan-2-yl)oxy-oxomethyl]-4-piperidinyl]-6-pyrazolo[1,5-a]pyrimidinecarboxylic acid] the figure was 15 µM. `Nc1nc2c(s1)CCc1c-2cnn1-c1ccccc1` [MLS000085948] registered an IC50 of more than 50 µM. Under `Cc1nc2c(C(=O)NCCC3=CCCCC3)c[nH]n2c(=O)c1Cl` [6-chloro-N-(2-cyclohex-1-en-1-ylethyl)-7-hydroxy-5-methylpyrazolo[1,5-a]pyrimidine-3-carboxamide] stands 31.1 µM.

Molecule `Cc1nn(C(C)C(=O)N2CCCCC2)c(=O)c2c1sc1ccccc12` (configuration not stated) [2-(2-keto-1-methyl-2-piperidino-ethyl)-4-methyl-benzothiopheno[2,3-d]pyridazin-1-one] displayed a half-maximal inhibitory concentration (IC50) of more than 50 µM. Under `O=C1C=Cc2ccccc2C1=O` [1,2-dihydronaphthalene-1,2-dione] stands 18.4 µM.

The record behind these values is BindingDB's records for doi:10.7270/Q2F769WQ (University of Pittsburgh, 2007).
